# Experimental data from US7323436B2, “Adduct having an acidic solution of sparingly-soluble group IIA complexes” (priority 1999, dated 2008).
# Assay: Contact with human skin and nose
# Assay type: in vivo
# Details: pH of less than 0.5
# Description: As discussed above, AGIIS has relatively less dehydrating properties (such as charring sucrose) as compared to the saturated solution of CaSO4 in the same concentration of H2SO4. […] AGIIS is non-volatile at room temperature.
compound,measurement,value
O=S(=O)(O)O [sulfuric acid],irritation of a hand put into the solution,an irritation would occur within a relatively short span of time
